PubChem BioAssay AID2060908 (Molecular Pharmacology Branch, DTP, NCI, 2025)
pIC50: −log10 of the molar value.

System: 186277-243-T-J2-PDC complex spheroids, viability
Experiment: Anticancer human tumor 186277-243-T-J2-PDC patient-derived colon adenocarcinoma cell line growth inhibition [RAS]
Conditions: for pIC50: curve of first compound; for viability, T/C: stronger effect = lower value
Procedure, shortened: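 Tumour cells grown as complex spheroids with HUVEC endothelial cells and mesenchymal stem cells, treated with RAS pathway inhibitor combinations. Each agent spans half-log steps from near clinical Cmax, or 10 microM where Cmax is unknown.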

[1] = second compound 0.000949 µM, first compound 0.000949 µM
[2] = second compound 0.000949 µM, first compound 0.003 µM
[3] = second compound 0.000949 µM, first compound 0.00949 µM
[4] = second compound 0.000949 µM, first compound 0.03 µM
[5] = second compound 0.000949 µM, first compound 0.0949 µM
[6] = second compound 0.000949 µM, first compound 0.3 µM
[7] = second compound 0.003 µM, first compound 0.000949 µM
[8] = second compound 0.003 µM, first compound 0.003 µM
[9] = second compound 0.003 µM, first compound 0.00949 µM
[10] = second compound 0.003 µM, first compound 0.03 µM
[11] = second compound 0.003 µM, first compound 0.0949 µM
[12] = second compound 0.003 µM, first compound 0.3 µM
[13] = second compound 0.00949 µM, first compound 0.000949 µM
[14] = second compound 0.00949 µM, first compound 0.003 µM
[15] = second compound 0.00949 µM, first compound 0.00949 µM
[16] = second compound 0.00949 µM, first compound 0.03 µM
[17] = second compound 0.00949 µM, first compound 0.0949 µM
[18] = second compound 0.00949 µM, first compound 0.3 µM
[19] = second compound 0.03 µM, first compound 0.000949 µM
[20] = second compound 0.03 µM, first compound 0.003 µM
[21] = second compound 0.03 µM, first compound 0.00949 µM
[22] = second compound 0.03 µM, first compound 0.03 µM
[23] = second compound 0.03 µM, first compound 0.0949 µM
[24] = second compound 0.03 µM, first compound 0.3 µM
[25] = second compound 0.0949 µM, first compound 0.000949 µM
[26] = second compound 0.0949 µM, first compound 0.003 µM
[27] = second compound 0.0949 µM, first compound 0.00949 µM
[28] = second compound 0.0949 µM, first compound 0.03 µM
[29] = second compound 0.0949 µM, first compound 0.0949 µM
[30] = second compound 0.0949 µM, first compound 0.3 µM
[31] = second compound 0.3 µM, first compound 0.000949 µM
[32] = second compound 0.3 µM, first compound 0.003 µM
[33] = second compound 0.3 µM, first compound 0.00949 µM
[34] = second compound 0.3 µM, first compound 0.03 µM
[35] = second compound 0.3 µM, first compound 0.0949 µM
[36] = second compound 0.3 µM, first compound 0.3 µM
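Also: spheroids exposed to compounds for 7 days before viability read.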

Compound: C=CC(=O)N1CCN(c2nc(OCC3CCCN3C)nc3c(F)c(-c4nc(N)cc(C)c4C(F)(F)F)c(Cl)cc23)C(C)C1 (stereo unspecified) + CCn1c(-c2cc(N3CCN(C)CC3)cnc2C(C)OC)c2c3cc(ccc31)-c1csc(n1)CC(NC(=O)C1CC1C)C(=O)N1CCCC(N1)C(=O)OCC(C)(C)C2
- pIC50 (second compound 0.000949 µM): < 6.00
- pIC50 (second compound 0.003 µM): < 6.00
- pIC50 (second compound 0.00949 µM): > 8.50
- pIC50 (second compound 0.03 µM): > 8.50
- pIC50 (second compound 0.0949 µM): > 8.50
- pIC50 (second compound 0.3 µM): > 8.50
- viability, T/C (second compound 0.000949 µM, first compound 0.00316 µM): 100%
- viability, T/C (second compound 0.000949 µM, first compound 0.01 µM): 95.3%
- viability, T/C (second compound 0.000949 µM, first compound 0.0316 µM): 97.8%
- viability, T/C (second compound 0.000949 µM, first compound 0.1 µM): 82%
- viability, T/C (second compound 0.000949 µM, first compound 0.316 µM): 96%
- viability, T/C (second compound 0.000949 µM, first compound 1 µM): 95.7%
- viability, T/C (second compound 0.003 µM, first compound 0.00316 µM): 93.8%
- viability, T/C (second compound 0.003 µM, first compound 0.01 µM): 79%
- viability, T/C (second compound 0.003 µM, first compound 0.0316 µM): 74.8%
- viability, T/C (second compound 0.003 µM, first compound 0.1 µM): 100%
- viability, T/C (second compound 0.003 µM, first compound 0.316 µM): 90.7%
- viability, T/C (second compound 0.003 µM, first compound 1 µM): 91.3%
- viability, T/C (second compound 0.00949 µM, first compound 0.00316 µM): 50.9%
- viability, T/C (second compound 0.00949 µM, first compound 0.01 µM): 43.2%
- viability, T/C (second compound 0.00949 µM, first compound 0.0316 µM): 45.5%
- viability, T/C (second compound 0.00949 µM, first compound 0.1 µM): 47%
- viability, T/C (second compound 0.00949 µM, first compound 0.316 µM): 49.9%
- viability, T/C (second compound 0.00949 µM, first compound 1 µM): 42.9%
- viability, T/C (second compound 0.03 µM, first compound 0.00316 µM): 15.2%
- viability, T/C (second compound 0.03 µM, first compound 0.01 µM): 15.7%
- viability, T/C (second compound 0.03 µM, first compound 0.0316 µM): 14%
- viability, T/C (second compound 0.03 µM, first compound 0.1 µM): 15.6%
- viability, T/C (second compound 0.03 µM, first compound 0.316 µM): 16.7%
- viability, T/C (second compound 0.03 µM, first compound 1 µM): 13.9%
- viability, T/C (second compound 0.0949 µM, first compound 0.00316 µM): 7.43%
- viability, T/C (second compound 0.0949 µM, first compound 0.01 µM): 6.42%
- viability, T/C (second compound 0.0949 µM, first compound 0.0316 µM): 6.99%
- viability, T/C (second compound 0.0949 µM, first compound 0.1 µM): 6.92%
- viability, T/C (second compound 0.0949 µM, first compound 0.316 µM): 7.72%
- viability, T/C (second compound 0.0949 µM, first compound 1 µM): 6.75%
- viability, T/C (second compound 0.3 µM, first compound 0.00316 µM): 6.06%
- viability, T/C (second compound 0.3 µM, first compound 0.01 µM): 5.29%
- viability, T/C (second compound 0.3 µM, first compound 0.0316 µM): 6.03%
- viability, T/C (second compound 0.3 µM, first compound 0.1 µM): 5.77%
- viability, T/C (second compound 0.3 µM, first compound 0.316 µM): 6.02%
- viability, T/C (second compound 0.3 µM, first compound 1 µM): 5.32%

Compound: CC1(C)CCC(Nc2ncc(C(F)(F)F)c(-c3c[nH]c4c(P(C)(C)=O)c(C#N)ccc34)n2)CN1 (stereo unspecified) + CCn1c(-c2cc(N3CCN(C)CC3)cnc2C(C)OC)c2c3cc(ccc31)-c1csc(n1)CC(NC(=O)C1CC1C)C(=O)N1CCCC(N1)C(=O)OCC(C)(C)C2
- pIC50 (second compound 0.000949 µM): 7.02
- pIC50 (second compound 0.003 µM): 7.35
- pIC50 (second compound 0.00949 µM): > 9.02
- pIC50 (second compound 0.03 µM): > 9.02
- pIC50 (second compound 0.0949 µM): > 9.02
- pIC50 (second compound 0.3 µM): > 9.02
- viability, T/C [1]: 103%
- viability, T/C [2]: 104%
- viability, T/C [3]: 88%
- viability, T/C [4]: 68.5%
- viability, T/C [5]: 49.8%
- viability, T/C [6]: 43.3%
- viability, T/C [7]: 96.8%
- viability, T/C [8]: 80.2%
- viability, T/C [9]: 82.1%
- viability, T/C [10]: 55.1%
- viability, T/C [11]: 37.4%
- viability, T/C [12]: 31.4%
- viability, T/C [13]: 48.1%
- viability, T/C [14]: 42.9%
- viability, T/C [15]: 31.9%
- viability, T/C [16]: 22.6%
- viability, T/C [17]: 18.2%
- viability, T/C [18]: 18.2%
- viability, T/C [19]: 14.1%
- viability, T/C [20]: 14%
- viability, T/C [21]: 10.6%
- viability, T/C [22]: 9.74%
- viability, T/C [23]: 10.6%
- viability, T/C [24]: 8.92%
- viability, T/C [25]: 7.13%
- viability, T/C [26]: 6.88%
- viability, T/C [27]: 5.95%
- viability, T/C [28]: 5.82%
- viability, T/C [29]: 6.47%
- viability, T/C [30]: 5.47%
- viability, T/C [31]: 5.71%
- viability, T/C [32]: 5.48%
- viability, T/C [33]: 4.65%
- viability, T/C [34]: 4.88%
- viability, T/C [35]: 4.85%
- viability, T/C [36]: 4.54%

Compound: CCc1c2c(nc3ccc(O)cc13)-c1cc3c(c(=O)n1C2)COC(=O)[C@]3(O)CC + CCn1c(-c2cc(N3CCN(C)CC3)cnc2C(C)OC)c2c3cc(ccc31)-c1csc(n1)CC(NC(=O)C1CC1C)C(=O)N1CCCC(N1)C(=O)OCC(C)(C)C2
- pIC50 (second compound 0.000949 µM): 8.28
- pIC50 (second compound 0.003 µM): 8.71
- pIC50 (second compound 0.00949 µM): > 9.02
- pIC50 (second compound 0.03 µM): > 9.02
- pIC50 (second compound 0.0949 µM): > 9.02
- pIC50 (second compound 0.3 µM): > 9.02
- viability, T/C [1]: 113%
- viability, T/C [2]: 58.7%
- viability, T/C [3]: 39.5%
- viability, T/C [4]: 23.4%
- viability, T/C [5]: 9.6%
- viability, T/C [6]: 6.83%
- viability, T/C [7]: 69.5%
- viability, T/C [8]: 37.6%
- viability, T/C [9]: 22.2%
- viability, T/C [10]: 13.2%
- viability, T/C [11]: 5.72%
- viability, T/C [12]: 4.11%
- viability, T/C [13]: 18.6%
- viability, T/C [14]: 10.9%
- viability, T/C [15]: 9.28%
- viability, T/C [16]: 6.45%
- viability, T/C [17]: 3.6%
- viability, T/C [18]: 2.17%
- viability, T/C [19]: 9.49%
- viability, T/C [20]: 6.27%
- viability, T/C [21]: 5.72%
- viability, T/C [22]: 4.05%
- viability, T/C [23]: 2.52%
- viability, T/C [24]: 1.56%
- viability, T/C [25]: 5.21%
- viability, T/C [26]: 4.44%
- viability, T/C [27]: 4.37%
- viability, T/C [28]: 2.94%
- viability, T/C [29]: 2.29%
- viability, T/C [30]: 1.3%
- viability, T/C [31]: 4.39%
- viability, T/C [32]: 3.92%
- viability, T/C [33]: 3.85%
- viability, T/C [34]: 2.91%
- viability, T/C [35]: 2.37%
- viability, T/C [36]: 1.27%
